{
  "source": "paper PMC8896685",
  "about": "(PLoS ONE, 2022)",
  "key": {"Rat GCGR": {"molecular_target": "T1, Rat GCGR (Rattus norvegicus, UniProt P30082)", "T1 construct": "a plasmid encoding either the glucagon receptor or the GLP-1 receptor from the relevant species; expressed in transfected cells", "T1 sequence (P30082 27-485)": "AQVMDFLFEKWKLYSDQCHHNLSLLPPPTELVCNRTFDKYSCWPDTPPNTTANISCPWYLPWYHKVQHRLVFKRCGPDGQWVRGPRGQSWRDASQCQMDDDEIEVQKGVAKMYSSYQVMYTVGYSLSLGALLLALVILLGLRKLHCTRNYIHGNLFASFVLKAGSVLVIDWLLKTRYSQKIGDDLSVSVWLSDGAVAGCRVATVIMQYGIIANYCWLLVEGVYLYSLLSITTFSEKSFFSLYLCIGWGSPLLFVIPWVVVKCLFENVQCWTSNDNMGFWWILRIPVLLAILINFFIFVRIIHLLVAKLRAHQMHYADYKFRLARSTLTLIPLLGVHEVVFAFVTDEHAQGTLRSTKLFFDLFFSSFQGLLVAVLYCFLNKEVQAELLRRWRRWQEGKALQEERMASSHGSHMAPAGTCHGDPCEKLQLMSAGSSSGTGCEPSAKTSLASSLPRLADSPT", "assay": "Receptor potency, CRE-luciferase functional assay in BHK cells", "type": "cell-based", "conditions": "Rat receptors, whole BHK cells, 0% plasma, 3 h 37°C, value (95% CI)"}, "DIO mice [1]": {"system": "DIO mice", "assay": "Acute effect on glucose tolerance in DIO mice (IPGTT)", "type": "in vivo, mouse", "conditions": "3 or 5 nmol/kg s.c., at Cmax and at Cmin, p<0.001", "procedure": "All animals received a single s.c. injection of compound at 4 pm, 21 h prior to administration of glucose (for all treated animals to have equally affected food intake in the dark period prior to the intraperitoneal glucose tolerance test (IPGTT)). […] Animals were fasted for 5–6 h prior to intraperitoneal (i.p.) injection of 2 g/kg glucose."}, "DIO mice [2]": {"system": "DIO mice", "assay": "Subchronic effect on energy expenditure in DIO mice (indirect calorimetry)", "type": "in vivo, mouse", "conditions": "5 nmol/kg s.c. once daily, eleven days", "procedure": "DIO mice (n = 8) were treated once daily s.c. in the morning for eleven days with vehicle or 5 nmol/kg NN1177. Forty-eight hours prior to first dose and during the study, the metabolic phenotype was determined using the PhenoMaster system (TSE Systems GmbH, Bad Homburg, Germany). During this period, air flow, temperature, oxygen- and carbon dioxide content, oxygen uptake (VO2) and carbon dioxide production (VCO2) were simultaneously measured using standard indirect calorimetry analysis. The respiratory exchange rate (RER) and energy expenditure (EE) were calculated automatically from VO2 and VCO2. Furthermore, voluntary activity in x-y dimensions was determined. All parameters were measured simultaneously for one min per cage in two cages at a time, resulting in a time resolution of data points of 9 min. Statistical analysis was performed as one-way ANOVA followed by Dunnets post-hoc test. Statistics on body weight was performed as one-way ANOVA at the last day of treatment. Statistics on energy expenditure data was calculated using two-way ANOVA with repeated measures with Bonferroni’s post hoc test. Statistical analysis was performed on average light-dark period values (only raw data, no mean data is presented). p<0.05 was considered statistically significant. GraphPad Prism 6.4 (GraphPad) was used for all in vivo data visualization as well as statistical analyses."}, "Mouse GCGR": {"molecular_target": "T2, Mouse GCGR (Mus musculus, UniProt Q61606)", "T2 construct": "a plasmid encoding either the glucagon receptor or the GLP-1 receptor from the relevant species; expressed in transfected cells", "T2 sequence (Q61606 27-485)": "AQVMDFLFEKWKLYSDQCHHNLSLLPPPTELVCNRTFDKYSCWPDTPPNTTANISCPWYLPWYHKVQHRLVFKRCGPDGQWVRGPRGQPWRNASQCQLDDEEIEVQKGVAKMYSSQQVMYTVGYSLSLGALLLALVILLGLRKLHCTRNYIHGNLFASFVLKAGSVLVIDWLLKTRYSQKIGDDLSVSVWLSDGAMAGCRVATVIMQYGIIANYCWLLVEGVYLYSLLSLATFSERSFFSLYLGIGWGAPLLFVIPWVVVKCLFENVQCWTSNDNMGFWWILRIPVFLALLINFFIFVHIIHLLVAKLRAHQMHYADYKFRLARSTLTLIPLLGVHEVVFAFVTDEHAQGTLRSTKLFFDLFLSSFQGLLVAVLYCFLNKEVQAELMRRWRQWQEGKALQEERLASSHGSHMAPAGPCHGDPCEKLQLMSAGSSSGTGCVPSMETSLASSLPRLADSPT", "assay": "Receptor binding, SPA competitive binding assay", "conditions": "SPA competitive binding on BHK cell membranes, [125I]-glucagon tracer, 1% species specific plasma, 2 h 30°C; value (95% CI)"}, "DIO rats": {"system": "DIO rats", "assay": "Oral glucose tolerance in DIO rats at steady state", "type": "in vivo, rat", "conditions": "3 nmol/kg s.c. once daily, 3 g/kg oral glucose, p<0.05", "procedure": "Oral glucose tolerance was evaluated on study day 15, 5 h post-dosing (at Cmax). Animals were fasted for 5 h prior to oral administration of glucose (3 g/kg). […] Conscious animals were MR-scanned prior to initiation of treatment and at the end of the treatment period."}, "in vivo": {"assay": "in vivo", "conditions": "mouse, sc", "procedure": "Compound exposure was measured by Luminescence Oxygen Channeling Immunoassay (LOCI). […] The three reactants were combined with the analyte and formed a two-sited immuno-complex. Illumination of the complex released singlet oxygen […] from the donor beads. They were channeled into the acceptor beads and triggered a chemiluminescence response which was measured in an EnVision plate reader (PerkinElmer). The amount of light was proportional to the concentration of the analyte. As calibrators, a dilution line of the relevant analyte in rat/mouse plasma was included.\nPlasma concentration-time profiles were analysed using non-compartmental analysis (NCA) using Phoenix WinNonlin Professional 6.3 (Pharsight, Mountain View, CA, US). Calculations were performed using full concentration-time profile values or sparse sampling concentration-time values as appropriate."}, "DIO mice [3]": {"system": "DIO mice", "assay": "Subchronic effect on glucose tolerance in DIO mice (IPGTT at steady state)", "type": "in vivo, mouse", "conditions": "after 3 weeks daily s.c. dosing, Cmax (5 h post dosing), p<0.001"}},
  "note": "Numbered stars: 1 amine (or outer) side, 2 acyl side, 3 side chain; on linkers, the order of the positions; unused ones are H or OH. Square brackets hold non-standard residues; d marks the D form. Side chains are listed from the residue outwards. Peptide text beside a SMILES is read from it. * marks the point of attachment. C18 diacid = O=C(O)CCCCCCCCCCCCCCCCC(=O)*; γGlu = O=C(O)[C@H](CCC(=O)[*:2])N[*:1]; Desaminohistidyl = O=C(CCc1c[nH]cn1)*; Ac4c = NC1(C(=O)O)CCC1; AEEA = NCCOCCOCC(=O)O; Aib = CC(C)(N)C(=O)O",
  "data": [
    {"compound": "CC(C)C[C@H](NC(=O)[C@H](Cc1ccc(O)cc1)NC(=O)[C@H](CCCCN)NC(=O)[C@H](CO)NC(=O)[C@H](CC(C)C)NC(=O)[C@H](CC(=O)O)NC(=O)[C@H](CO)NC(=O)[C@@H](NC(=O)[C@H](Cc1ccccc1)NC(=O)[C@@H](NC(=O)CNC(=O)[C@H](CCC(N)=O)NC(=O)C(C)(C)NC(=O)[C@@H](N)Cc1c[nH]cn1)[C@@H](C)O)[C@@H](C)O)C(=O)N[C@@H](CCC(=O)O)C(=O)N[C@@H](CO)C(=O)N[C@@H](CCCCN)C(=O)N[C@@H](CCCNC(=N)N)C(=O)N[C@@H](C)C(=O)N[C@@H](CCCNC(=N)N)C(=O)N[C@@H](CCC(=O)O)C(=O)N[C@@H](Cc1ccccc1)C(=O)N[C@H](C(=O)N[C@@H](CCC(N)=O)C(=O)N[C@@H](Cc1c[nH]c2ccccc12)C(=O)N[C@@H](CC(C)C)C(=O)N[C@@H](CC(C)C)C(=O)N[C@@H](CCCCNC(=O)CC[C@H](NC(=O)CC[C@H](NC(=O)[C@H](CO)NC(=O)[C@H](CCC(=O)O)NC(=O)[C@H](CO)NC(=O)CC[C@H](NC(=O)CC[C@H](NC(=O)CCCCCCCCCCCCCCCCC(=O)O)C(=O)O)C(=O)O)C(=O)O)C(=O)O)C(=O)N[C@H](C(N)=O)[C@@H](C)O)C(C)C", "note": "[NN1177] (H-H[Aib]QGTFTSDLSKYLESKRAREFVQWLLK([γGlu-γGlu-Ser-Glu-Ser-γGlu-γGlu-C18 diacid])T-NH2)", "values": [
      {"measurement": "EC50", "setting": "Rat GCGR", "value": 0.00183, "unit": "nM"},
      {"measurement": "Glucose tolerance (IPGTT) vs vehicle", "setting": "DIO mice [1]; 2 g/kg glucose i.p.", "value": "improved"},
      {"measurement": "Basal blood glucose vs vehicle", "setting": "DIO mice [1]", "value": "improved"},
      {"measurement": "Body weight loss during treatment period", "setting": "DIO mice [2]", "value": "approximately 30%"},
      {"measurement": "Physical activity", "setting": "DIO mice [2]", "value": "not affected"},
      {"measurement": "Respiratory exchange ratio (RER)", "setting": "DIO mice [2]; light and dark period, p<0.001", "value": "decreased significantly"},
      {"measurement": "Energy expenditure per body weight", "setting": "DIO mice [2]; light and dark period, p<0.01 day 3, p<0.001 day 5–11", "value": "increased"},
      {"measurement": "IC50", "setting": "Mouse GCGR", "value": 0.29, "unit": "nM"},
      {"measurement": "Oral glucose tolerance vs vehicle", "setting": "DIO rats", "value": "significantly impaired"}
    ]},
    {"compound": "CC(C)C[C@H](NC(=O)[C@H](CC(C)C)NC(=O)[C@H](Cc1c[nH]c2ccccc12)NC(=O)[C@H](CCC(N)=O)NC(=O)[C@@H](NC(=O)[C@H](Cc1ccccc1)NC(=O)[C@H](CCC(=O)O)NC(=O)[C@H](CCCNC(=N)N)NC(=O)[C@H](C)NC(=O)[C@H](C)NC(=O)[C@H](CCCNC(=N)N)NC(=O)[C@H](CO)NC(=O)[C@H](CC(=O)O)NC(=O)[C@H](CC(C)C)NC(=O)[C@H](Cc1ccc(O)cc1)NC(=O)[C@H](CCCCN)NC(=O)[C@H](CO)NC(=O)[C@H](CC(C)C)NC(=O)[C@H](CC(=O)O)NC(=O)[C@H](CO)NC(=O)[C@@H](NC(=O)[C@H](Cc1ccccc1)NC(=O)[C@@H](NC(=O)CNC(=O)[C@H](CCC(=O)O)NC(=O)C(C)(C)NC(=O)[C@@H](N)Cc1c[nH]cn1)[C@@H](C)O)[C@@H](C)O)C(C)C)C(=O)N[C@@H](CC(N)=O)C(=O)N[C@@H](CCCCNC(=O)CC[C@H](NC(=O)CC[C@H](NC(=O)COCCOCCNC(=O)COCCOCCNC(=O)CC[C@H](NC(=O)CCCCCCCCCCCCCCCCC(=O)O)C(=O)O)C(=O)O)C(=O)O)C(N)=O", "note": "[GLP-1 reference] (H-H[Aib]EGTFTSDLSKYLDSRAAREFVQWLLNK([γGlu-γGlu-AEEA-AEEA-γGlu-C18 diacid])-NH2)", "values": [
      {"measurement": "EC50", "setting": "Rat GCGR", "value": 35.3, "unit": "nM"},
      {"measurement": "half-life", "setting": "in vivo", "value": 11, "unit": "h"}
    ]},
    {"compound": "CC[C@H](C)[C@H](NC(=O)[C@H](Cc1ccccc1)NC(=O)[C@H](CCC(=O)O)NC(=O)[C@H](CCCNC(=N)N)NC(=O)[C@H](C)NC(=O)[C@H](C)NC(=O)[C@H](CCC(N)=O)NC(=O)[C@H](CCC(=O)O)NC(=O)[C@H](CCC(=O)O)NC(=O)[C@H](CC(C)C)NC(=O)[C@H](Cc1ccc(O)cc1)NC(=O)[C@H](CCCCN)NC(=O)[C@H](CO)NC(=O)[C@@H](NC(=O)[C@H](CC(=O)O)NC(=O)[C@H](CO)NC(=O)[C@@H](NC(=O)[C@H](Cc1ccccc1)NC(=O)[C@@H](NC(=O)CNC(=O)[C@H](Cc1c[nH]cn1)NC(=O)C(C)(C)NC(=O)CCc1c[nH]cn1)[C@@H](C)O)[C@@H](C)O)C(C)C)C(=O)N[C@@H](C)C(=O)N[C@@H](Cc1c[nH]c2ccccc12)C(=O)N[C@@H](CC(C)C)C(=O)N[C@@H](CC(C)C)C(=O)N[C@@H](CCCCNC(=O)COCCOCCNC(=O)COCCOCCNC(=O)CC[C@H](NC(=O)CC[C@H](NC(=O)CCCCCCCCCCCCCCCCC(=O)O)C(=O)O)C(=O)O)C(=O)N[C@H](C(N)=O)[C@@H](C)O", "note": "[NN1359] (Desaminohistidyl-[Aib]HGTFTSDVSKYLEEQAAREFIAWLLK([AEEA-AEEA-γGlu-γGlu-C18 diacid])T-NH2)", "values": [
      {"measurement": "Basal blood glucose vs vehicle", "setting": "DIO mice [3]", "value": "significantly improved"},
      {"measurement": "IC50", "setting": "Mouse GCGR", "value": 14, "unit": "nM"}
    ]},
    {"compound": "CC(C)C[C@H](NC(=O)[C@H](CC(=O)O)NC(=O)[C@H](CC(C)C)NC(=O)[C@H](Cc1ccc(O)cc1)NC(=O)[C@H](CCCCN)NC(=O)[C@H](CO)NC(=O)[C@H](CC(C)C)NC(=O)[C@H](CC(=O)O)NC(=O)[C@H](CO)NC(=O)[C@@H](NC(=O)[C@H](Cc1ccccc1)NC(=O)[C@@H](NC(=O)CNC(=O)[C@H](CCC(N)=O)NC(=O)C1(NC(=O)[C@@H](N)Cc2c[nH]cn2)CCC1)[C@@H](C)O)[C@@H](C)O)C(=O)N[C@@H](CCCNC(=N)N)C(=O)N[C@@H](CCCNC(=N)N)C(=O)N[C@@H](C)C(=O)N[C@@H](CCCNC(=N)N)C(=O)N[C@@H](CC(=O)O)C(=O)N[C@@H](Cc1ccccc1)C(=O)N[C@H](C(=O)N[C@@H](CCC(N)=O)C(=O)N[C@@H](Cc1c[nH]c2ccccc12)C(=O)N[C@@H](CC(C)C)C(=O)N[C@@H](CC(C)C)C(=O)N[C@@H](CCCCNC(=O)CC[C@H](NC(=O)CC[C@H](NC(=O)COCCOCCNC(=O)COCCOCCNC(=O)CC[C@H](NC(=O)CC[C@H](NC(=O)CCCCCCCCCCCCCCCCC(=O)O)C(=O)O)C(=O)O)C(=O)O)C(=O)O)C(=O)N[C@H](C(N)=O)[C@@H](C)O)C(C)C", "note": "[NN1151] (H-H[Ac4c]QGTFTSDLSKYLDLRRARDFVQWLLK([γGlu-γGlu-AEEA-AEEA-γGlu-γGlu-C18 diacid])T-NH2)", "values": [
      {"measurement": "Basal blood glucose vs vehicle", "setting": "DIO mice [3]", "value": "improved"}
    ]}
  ]
}
